Assay results taken from patent publication US20260217656A1, “Compounds Affecting KRAS” (UNIVERSITAT DE BARCELONA, priority 2022, published 2026).
Entries after “also recorded” stand apart in the source; their conditions may differ.

How the values were obtained:
[1] = system: Ras effectors ERK and AKT in DLD-1 cells; test: Western blot of downstream RAS signaling (P-ERK, P-AKT, P-MEK) in serum-starved DLD-1 cells; assay type: cell-based, human; conditions: 100 μM; for activation of AKT and ERK / relative capacity to activate Ras effectors ERK and AKT among the compounds: DLD-1 serum-starved cells, 3 hours
From the text: DLD-1 (KRASWT/G13D) (clone V15, #HD PAR-086) colorectal adenocarcinoma cell line and DLD-1 knockout of mutant KRAS allele, DLD-1 KO (KRASWT/−) (clone DWT7, #HD105-002), were obtained from Horizon Discovery Ltd. (Cambridge, UK). hTERT-RPE (KRASWT/WT) immortalized retinal pigment epithelial human cell line was obtained from the […] (ATCC). DLD-1 KO cells stably expressing HA-KRAS G12V were previously generated in our laboratory (Cabot et al., 2021). All cells were grown in DMEM-HAM s F12 (1:1) supplemented with 10% foetal bovine serum (Biological Industries, Israel), penicillin, streptomycin, and nonessential amino acids. Cells were tested once per month for mycoplasma contamination.
Cells were seeded in a media containing 10% FBS for 24 hours and then they were serum starved (0.1% FBS) for the next 24 hours. Afterwards, they were incubated with the different compounds during the times specified in each figure. When indicated, also in order to activate downstream KRAS cell signalling, treatment for 10 minutes with EGF (50 ng/mL) (Sigma-Aldrich) was performed.
Proteins were resolved by SDS-PAGE, transferred onto PVDF membranes (Immobilon-P, Millipore) and Western blot was performed as previously described (Cabot et al, Oncogene 2021). The following primary antibodies were used: anti-c-RAF (BD Transduction 610151, 1:500); anti-phospho-c-RAF S338 (Cell Signaling 9427, 1:500); anti-AKT (Cell Signaling 9272, 1:1000); anti-phospho-AKT T308 (Cell Signaling 4056, 1:1000); anti-phospho-MEK1/2 S221 (Cell Signalling […]); anti-p44/42 MAPK (ERK1/2) (Cell Signaling 9102, 1:2000); anti-phospho-p44/42 MAPK(ERK1/2) T202/Y204 (Cell Signaling 4370, 1:2000); anti-HA (Sigma-Aldrich H6908, 1:1000); anti-cleaved-caspase-3 (Asp175) (Cell Signaling 9661, 1:1000); HRP-coupled secondary antibodies used: goat anti-rabbit (BioRad 170-6515, 1:3000) or goat anti-mouse (BioRad 170 6516, 1:3000).
For analysis of RAS signalling, cells were lysed in a buffer containing 67 mM Tris-HCl pH 6.8 and 2% SDS and then the samples were heated at 97° C. for 15 minutes. Protein concentration of the lysates was assessed using the Lowry method. An aliquot of […] of protein per sample was loaded onto the gels.
We first analyzed the effect of P14 on the activation of downstream RAS signaling pathways (RAF/MEK/ERK and PI3K/AKT) in DLD-1 cells (CRC cells carrying one oncogenic KRAS allele). To this end, DLD-1 serum-starved cells (0.1% FCS) were treated with P14 (100 μM) at different times, and activation of AKT and ERK was evaluated by Western blot. […] As a 3-hour treatment was associated with major effects, we chose this duration for the subsequent experiments with the other compounds. Next, DLD-1 serum-starved cells were treated with P14A-P14C at 100 μM for 3 hours and activation of AKT and ERK was assessed as above. […] The kinetics of RAS downstream signaling was analyzed in P14B-treated cells compared to 10% FBS serum.

[2] = system: Panc-1 cells; test: Cell Titre Glo viability assay, Panc-1; assay type: cell-based; conditions: Panc-1 cells (KRAS mutant G12D), after five days of treatment
Description: In the next study, compounds were tested against cancer cells: pancreatic cancer cells (Panc-1), ovarian cancer cells (SW626) and uterine sarcoma cells (Mes-sa). The data generated using Cell Titre Glo® assays under standard conditions where the cells are grown in 384 well plates, then placed under continuous pressure of treatment for the relevant time period before being halted and assayed. The data collected is then plotted for analysis.
FIG. […]

Row | SMILES | P-ERK and P-AKT levels, time course ([1]; DLD-1 serum-starved cells (0.1% FCS), 3 and 6 hours) | activation of AKT and ERK [1] | relative capacity to activate Ras effectors ERK and AKT among the compounds [1] | IC50 [2] [µM] | response among the molecules tested [2]
1 | Cc1n[nH]c(O)c1C(c1ccccc1OCc1ccc(Cl)cc1)c1c(C)n[nH]c1O [Example P14] | significantly increased P-ERK and P-AKT | activated AKT and ERK kinases; also recorded: increase AKT and/or ERK signalling | most efficient | – | –
2 | COc1ccc(C(c2c(C)n[nH]c2O)c2c(C)n[nH]c2O)cc1OCCc1ccc(Cl)cc1 [P14(J)SD] | – | – | – | < 20 | best response
3 | Cc1n[nH]c(O)c1C(c1ccc(F)cc1)c1c(C)n[nH]c1O [Example P14A] | – | increase AKT and/or ERK signalling | highest activation of both Ras effectors | – | –
4 | Cc1n[nH]c(O)c1C(c1ccc2c(c1)OCO2)c1c(C)n[nH]c1O [Example P14C] | – | activated AKT and ERK kinases; also recorded: increase AKT and/or ERK signalling | – | – | –
